From paper PMC9415608, “Design, Synthesis and Biological Investigation of 2-Anilino Triazolopyrimidines as Tubulin Polymerization Inhibitors with Anticancer Activities” (Pharmaceuticals, 2022)
Where two headings read alike, the source gives them in different places. Values belong to the compound of their own block, whether it stands above or below them.

How the values were obtained:
cancer cell lines = conditions: antiproliferative agent; read-out: IC50, range; cited from earlier work
[1] = tested on: MDA-MB-231, HeLa, A549 and HT-29 cancer cell lines; test: Antiproliferative activity stated across the panel of cancer cell lines; format: cell-based, human; conditions: for IC50: Homo sapiens; for fold reduction in antiproliferative activity relative to 3d: range over cell lines
Description: (§1) All the cell lines used in this paper were of human origin and purchased from the American Type Culture Collection (ATCC, Manassas, VA, USA). Colon adenocarcinoma (HT-29), non-small cell lung carcinoma (A549), cervix carcinoma (HeLa) and breast adenocarcinoma (MDA-MB-231) cells were grown in RPMI (HT29) or DMEM (A549, HeLa, MDA-MB-231) medium (Gibco, Milano, Italy). Both media were supplemented with 115 units/mL of penicillin G (Gibco, Milano, Italy), 115 μg/mL of streptomycin (Invitrogen, Milano, Italy) and 10% fetal bovine serum (Invitrogen, Milano, Italy). All cell lines were grown at 37 °C in a humidified 5% CO2 atmosphere. The cells were grown in 2 mL of complete medium.
(§2) Stock solutions were prepared for each compound by dissolving in DMSO at the final concentration of 10 mM.
(§3) The cells were seeded in 96-well plates at the appropriate density for each cell line. The respective cell line densities used for the antiproliferative assay were HeLa and HT29 5000 cells/well, A549 4000 cells/well and MDA-MB-231 7000 cells/well. The total volume of medium was 100 µL. After 24 h, the cells were treated by performing serial 5-fold dilutions of the tested compounds starting from a concentration of 10 μM. All experimental conditions were tested in triplicate for statistical analysis. After 72 h of incubation, 10 μL of 100 μg/mL resazurin solution was added to each well and the plate was re-incubated for 3–4 h. The fluorescence of the wells in each plate was monitored using a Spark 10M spectrophotometer (Tecan Group Ltd., Mannedorf, Switzerland) with a 535 nm excitation wavelength and a 600 nm emission wavelength.

HeLa = test: In vitro cell growth inhibition, resazurin viability assay; format: cell-based, human; conditions: Homo sapiens; 72 h, resazurin; mean ± SE
Description: as §1, §2, §3

MDA-MB-231 = test: as above; format: cell-based, human; conditions: Homo sapiens, MDA-MB-231; 72 h, resazurin; mean ± SE
Description: as §1, §2, §3

Bovine brain tubulin [2] = test: Inhibition of [3H]colchicine binding to tubulin; conditions: tubulin 0.5 µM, [3H]colchicine 5 µM, tested compound 5 µM
Description: (§4) Bovine brain tubulin was purified as described previously. To evaluate the effects of the compounds on tubulin assembly in vitro [80], varying concentrations were preincubated with 10 μM tubulin in 0.8 M monosodium glutamate (pH 6.6) at 30 °C and the reaction mixtures then cooled to 0 °C. After addition of GTP, the mixtures were transferred to 0 °C cuvettes in Beckman Coulter (Brea, CA, USA) DU-7400/DU-7500 recording spectrophotometers equipped with electronic temperature controllers and warmed to 30 °C, and the assembly of tubulin was observed turbidimetrically. […] Inhibition of colchicine binding to tubulin was measured as described before, except that the reaction mixtures contained 0.5 μM tubulin and 5 μM each of [^3H]colchicine and test compound. Only one DEAE-cellulose filter was used per sample, and filtration was by gravity.
(§5) Bovine brain tubulin (see ref. [79] for details of purification) was used to examine effects on tubulin polymerization and colchicine binding. Briefly, in the polymerization experiments, different compound concentrations were preincubated with 10 µM tubulin for 15 min at 30 °C and cooled on ice. After GTP was added to each reaction mixture, the samples were transferred to 0 °C cuvettes in recording spectrophotometers with electronic temperature controllers. The temperature was raised to 30 °C over about 30 s, and turbidity development was followed for 20 min at 350 nm. […] In the current studies, [^3H]colchicine (from American Radiolabeled Corp., St. Louis, MO) binding was measured after 10 min at 37 °C. Reaction mixtures contained 0.5 µM tubulin and 5.0 µM each of the [^3H]colchicine and the potential inhibitor, and a single DEAE-cellulose filter was used for each sample, with gravity filtration.

Bovine brain tubulin [3] = test: Inhibition of tubulin polymerization (turbidimetric assembly assay); format: biochemical; conditions: tubulin at 10 μM, 20 min incubation; read-out: Tubulin Assembly IC50 ± SD
Description: as §4, §5

tubulin [4] = tested on: tubulin; set-up: method as in PMID 25025853; conditions: read-out: IC50 inhibition of tubulin polymerization; cited from earlier work
HT29 = test: In vitro cell growth inhibition, resazurin viability assay; format: cell-based, human; conditions: Homo sapiens, HT-29; 72 h, resazurin; mean ± SE
Description: as §1, §2, §3

A549 = test: as above; format: cell-based, human; conditions: Homo sapiens, A549; 72 h, resazurin; mean ± SE
Description: as §1, §2, §3

tubulin [5] = conditions: cited from earlier work
HeLa cells = conditions: read-out: IC50 antiproliferative activity against HeLa cells; cited from earlier work
[6] = tested on: panel of four cancer cell lines; conditions: read-out: IC50 values, range; cited from earlier work
tubulin [7] = tested on: tubulin; set-up: method as in PMID 35196595; conditions: read-out: IC50 tubulin polymerization inhibitor; cited from earlier work
HCT-116 cancer cell line = tested on: HCT-116 cancer cell line; set-up: method as in PMID 35196595; conditions: read-out: IC50 antiproliferative activity against HCT-116; cited from earlier work
[8] = on HeLa, A549 and HT-29 cancer cells, read-out: IC50 values, range

Structure (SMILES): COc1cc(Nc2cc(C)nc3nc(Nc4ccc(C)cc4)nn23)cc(OC)c1OC [5-methyl-2-(p-toluidino)-7-(3′,4′,5′-trimethoxyanilino)-[1,2,4]triazolo[1,5-a]pyrimidine]
IC50 (cancer cell lines): 520 to 1550 nM

Structure (SMILES): COc1ccc(/C=C\c2cc(OC)c(OC)c(OC)c2)cc1O [CA-4, combretastatin A-4, reference compound]
IC50 ([1]; against MDA-MB-231 and HeLa cancer cell lines, read-out: IC50, range): 4 to 5 nM
IC50 (HeLa): 0.004 ± 0.001 µM
IC50 (MDA-MB-231): 0.005 ± 0.002 µM
Colchicine Binding % Inhibition ± SD (Bovine brain tubulin [2]): 98 ± 2%

Structure (SMILES): COc1cc(C(=O)n2nc(Nc3ccc(C)cc3)nc2N)cc(OC)c1OC [Compound 2a]
IC50 (tubulin [4]): 750 nM

IC50 [1, 8]: 67 to 160 nM
IC50 (HT29): 0.16 ± 0.041 µM
IC50 (HeLa): 0.067 ± 0.0023 µM
IC50 (A549): 0.16 ± 0.045 µM
IC50 (MDA-MB-231): > 10 µM
Colchicine Binding % Inhibition ± SD (Bovine brain tubulin [2]): 18 ± 5%
melting point: 189 to 190 °C
IC50 (Bovine brain tubulin [3]): 800 ± 100 nM
Structure (SMILES): COc1cc(-c2ccnc3nc(Nc4ccc(C)c(C)c4)nn23)cc(OC)c1OC [Compound 3f, N-(3,4-Dimethylphenyl)-7-(3,4,5-trimethoxyphenyl)-[1,2,4]triazolo[1,5-a]pyrimidin-2-amine]
fold reduction in antiproliferative activity relative to 3d [1]: 2–5 fold

IC50 [1, 8]: 160 to 240 nM
IC50 (HT29): 0.16 ± 0.033 µM
IC50 (HeLa): 0.24 ± 0.074 µM
IC50 (A549): 0.2 ± 0.044 µM
IC50 (MDA-MB-231): > 10 µM
Colchicine Binding % Inhibition ± SD (Bovine brain tubulin [2]): 21 ± 0.9%
melting point: 199 to 200 °C
IC50 (Bovine brain tubulin [3]): 1900 ± 200 nM
Structure (SMILES): CCc1ccc(Nc2nc3nccc(-c4cc(OC)c(OC)c(OC)c4)n3n2)cc1 [Compound 3h, N-(4-Ethylphenyl)-7-(3,4,5-trimethoxyphenyl)-[1,2,4]triazolo[1,5-a]pyrimidin-2-amine]
fold reduction in antiproliferative activity relative to 3d [1]: 5–7 fold

Structure (SMILES): COc1ccc(-c2nc3nccc(-c4cc(OC)c(OC)c(OC)c4)n3n2)cc1O [Compound 4]
fold greater potency than CA-4, inhibition of tubulin assembly (tubulin [5]): 3 fold
IC50 (HeLa cells): 60 nM
IC50 [6]: 3000 to 18000 nM

Structure (SMILES): COc1cc(-c2cc(-c3ccc(Cl)cc3)nc3nc(N)nn23)cc(OC)c1OC [Compound 5]
IC50 (tubulin [7]): 3840 nM
IC50 (HCT-116 cancer cell line): 530 nM
